Results from US9682967B2.

Target: hSortilin (Homo sapiens (Human), UniProt Q99523)
Experiment: hSortilin affinity assay (displacement of 3H-neurotensin, SPA)
Format: binding
Details: for IC50: [3H]-Neurotensin 5 nM, 150 nM 6his-Sortilin, read-out: hSortilin NTS Binding IC50; for Ki: from IC50 by Cheng-Prusoff, Kd neurotensin 100 nM

Chain of hSortilin (Q99523 34-755): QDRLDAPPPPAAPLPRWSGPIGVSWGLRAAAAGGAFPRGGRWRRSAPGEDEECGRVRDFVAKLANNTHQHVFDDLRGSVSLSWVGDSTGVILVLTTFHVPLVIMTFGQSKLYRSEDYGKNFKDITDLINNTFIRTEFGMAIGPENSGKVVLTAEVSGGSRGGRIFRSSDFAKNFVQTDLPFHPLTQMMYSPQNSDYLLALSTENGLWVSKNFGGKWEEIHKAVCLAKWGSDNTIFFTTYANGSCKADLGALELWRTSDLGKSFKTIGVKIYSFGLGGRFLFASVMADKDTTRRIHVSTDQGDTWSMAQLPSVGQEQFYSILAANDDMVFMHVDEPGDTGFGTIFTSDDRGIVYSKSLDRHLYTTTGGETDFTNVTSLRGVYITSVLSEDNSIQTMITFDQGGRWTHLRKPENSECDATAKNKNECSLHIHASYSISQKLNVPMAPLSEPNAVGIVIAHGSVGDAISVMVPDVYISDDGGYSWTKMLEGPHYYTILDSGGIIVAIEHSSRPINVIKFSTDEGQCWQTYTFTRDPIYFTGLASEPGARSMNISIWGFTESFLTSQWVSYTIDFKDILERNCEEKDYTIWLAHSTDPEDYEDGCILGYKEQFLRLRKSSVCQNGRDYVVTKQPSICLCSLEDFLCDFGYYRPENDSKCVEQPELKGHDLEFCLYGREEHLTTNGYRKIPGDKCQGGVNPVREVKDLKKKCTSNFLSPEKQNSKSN

Row | SMILES | IC50 [nM] | Ki [nM]
1 | Cc1cccc(NC(=O)c2ccc(C(C)C)cc2C(=O)O)n1 [Example 43, N 5-Isopropyl-N-(6-methyl-pyridin-2-yl)-phthalamic acid] | 1100 | 1050
2 | O=C(O)c1cc(Br)ccc1C(=O)Nc1ccc2ccccc2n1 [Example 29, 5-Bromo-N-quinolin-2-yl-phthalamic acid] | 1300 | 1240
3 | Cc1cccc(NC(=O)c2ccc(Cl)cc2C(=O)O)n1 [Example 4, 5-Chloro-N-(6-methyl-pyridin-2-yl)-phthalamic acid] | 1400 | 1330
4 | O=C(O)c1cc(C(F)(F)F)ccc1C(=O)NCc1ccncc1 [Example 39, N-Pyridin-4-ylmethyl-5-trifluoromethyl-phthalamic acid] | 7500 | 7140
5 | Cc1cccc(NC(=O)c2ccc(Cl)c(F)c2C(=O)O)n1 [Example 14, 5-Chloro-6-fluoro-N-(6-methyl-pyridin-2-yl)-phthalamic acid] | 4200 | 4000
6 | Cc1cccc(NC(=O)c2cc(C(F)(F)F)c(C(F)(F)F)cc2C(=O)O)n1 [Example 47, 2-((6-methylpyridin-2-yl)carbamoyl)-4,5-bis(trifluoromethyl)benzoic acid] | 1200 | 1140
7 | Cc1csc(NC(=O)c2ccc(Br)cc2C(=O)O)n1 [Example 28, 5-Bromo-N-(4-methyl-thiazol-2-yl)-phthalamic acid] | 3600 | 3430
8 | N#Cc1c(NC(=O)c2ccc(Br)cc2C(=O)O)sc2c1CCCC2 [Example 6] | 4000 | –
9 | Cc1ccnc(NC(=O)c2ccc(Br)cc2C(=O)O)c1 [Example 24, 5-Bromo-N-(4-methyl-pyridin-2-yl)-phthalamic acid] | 2400 | 2290
10 | Cc1ccc(C(=O)Nc2cccc(C)n2)c(C(=O)O)c1 [Example 3, 5-Methyl-N-(6-methyl-pyridin-2-yl)-phthalamic acid] | 6400 | 6100
11 | CCCc1ccc(C(=O)Nc2cccc(C)n2)c(C(=O)O)c1 [Example 41, N-(6-Methyl-pyridin-2-yl)-5-propyl-phthalamic acid] | 3600 | 3430
12 | Cc1ccc(NC(=O)c2ccc(Br)cc2C(=O)O)nc1 [Example 19, 5-Bromo-N-(5-methyl-pyridin-2-yl)-phthalamic acid] | 1700 | 1620
13 | O=C(O)c1cc(Br)ccc1C(=O)Nc1cccc(Cl)n1 [Example 22, 5-Bromo-N-(6-chloro-pyridin-2-yl)-phthalamic acid] | 1600 | 1520
14 | O=C(O)c1cc(Br)ccc1C(=O)Nc1ccc(Cl)c(Cl)n1 [Example 30, 5-Bromo-N-(5,6-dichloro-pyridin-2-yl)-phthalamic acid] | 2100 | 2000
15 | Cc1ccnc(NC(=O)c2ccc(C(F)(F)F)cc2C(=O)O)c1 [Example 8, N-(4-methyl-pyridin-2-yl)-5-trifluoromethyl-phthalamic acid] | 1000 | 952
16 | O=C(O)c1cc(Br)ccc1C(=O)Nc1ccc(Cl)cn1 [Example 20, 5-Bromo-N-(5-chloro-pyridin-2-yl)-phthalamic acid] | 990 | 943
17 | COc1cccc(NC(=O)c2ccc(C(F)(F)F)cc2C(=O)O)n1 [Example 37, N-(6-Methoxy-pyridin-2-yl)-5-trifluoromethyl-phthalamic acid] | 1300 | 1240
18 | O=C(O)c1cc(Br)ccc1C(=O)Nc1ccccn1 [Example 21, 5-Bromo-N-pyridin-2-yl-phthalamic acid] | 3600 | 3430
19 | Cc1cccc(NC(=O)c2cc(C)c(C)cc2C(=O)O)n1 [Example 15, 4,5-Dimethyl-N-(6-methyl-pyridin-2-yl)-phthalamic acid] | 3400 | 3240
20 | Cc1cc(C)nc(NC(=O)c2ccc(Br)cc2C(=O)O)c1 [Example 33, 5-Bromo-N-(4,6-dimethyl-pyridin-2-yl)-phthalamic acid] | 970 | 924
21 | Cc1ccnc(NC(=O)c2cc(Cl)c(Cl)cc2C(=O)O)c1 [Example 10, 4,5-Dichloro-N-(4-methyl-pyridin-2-yl)-phthalamic acid] | 2200 | 2100
22 | Cc1cc(NC(=O)c2ccc(Br)cc2C(=O)O)ncn1 [Example 35, 5-Bromo-N-(6-methyl-pyrimidin-4-yl)-phthalamic acid] | 2000 | 1900

These reach a lower IC50. Values come first.

Row | IC50 [nM] | Ki [nM] | SMILES
23 | 170 | 162 | Cc1ccc(NC(=O)c2ccc(C(F)(F)F)cc2C(=O)O)nc1C [Example 7, N-(5,6-Dimethyl-pyridin-2-yl)-5-trifluoromethyl-phthalamic acid]
24 | 700 | 667 | Cc1cc(NC(=O)c2ccc(C(F)(F)F)cc2C(=O)O)ccn1 [Example 9, N-(2-methyl-pyridin-4-yl)-5-trifluoromethyl-phthalamic acid]
25 | 640 | 614 | Cc1cc(NC(=O)c2ccc(C(F)(F)F)cc2C(=O)O)cc(C)n1 [Example 51, 2-((2,6-dimethylpyridin-4-yl)carbamoyl)-5-(trifluoromethyl)benzoic acid]
26 | 480 | 457 | Cc1nccc(NC(=O)c2cc(Cl)c(Cl)cc2C(=O)O)n1 [Example 13, 4,5-Dichloro-N-(2-methyl-pyrimidin-4-yl)-phthalamic acid]
27 | 360 | 343 | Cc1ccnc(NC(=O)c2ccc(C(F)(F)F)cc2C(=O)O)n1 [Example 17, 2-((4-methylpyrimidin-2-yl)carbamoyl)-5-(trifluoromethyl)benzoic acid]
28 | 360 | 343 | O=C(O)c1cc(C(F)(F)F)ccc1C(=O)Nc1ncc(C(F)(F)F)cc1Cl [Example 16, 2-((3-chloro-5-(trifluoromethyl)pyridin-2-yl)carbamoyl)-5-(trifluoromethyl)benzoic acid]
29 | 300 | 286 | Cc1nccc(NC(=O)c2ccc(C(F)(F)F)cc2C(=O)O)n1 [Example 44, 2-((2-methylpyrimidin-4-yl)carbamoyl)-5-(trifluoromethyl)benzoic acid]
30 | 240 | 229 | Cc1ncc(NC(=O)c2ccc(C(F)(F)F)cc2C(=O)O)nc1C [Example 18, 2-((5,6-dimethylpyrazin-2-yl)carbamoyl)-5-(trifluoromethyl)benzoic acid]
31 | 750 | 714 | COc1cc(NC(=O)c2ccc(C(F)(F)F)cc2C(=O)O)ccn1 [Example 36, N-(2-Methoxy-pyridin-4-yl)-5-trifluoromethyl-phthalamic acid]
32 | 490 | 467 | Cc1nccc(NC(=O)c2ccc(Br)cc2C(=O)O)n1 [Example 34, 5-Bromo-N-(2-methyl-pyrimidin-4-yl)-phthalamic acid]
33 | 620 | 599 | Cc1nccc(NC(=O)c2cc(C(F)(F)F)c(C(F)(F)F)cc2C(=O)O)n1 [Example 50, 2-((2-methylpyrimidin-4-yl)carbamoyl)-4,5-bis(trifluoromethyl)benzoic acid]
34 | 750 | 734 | Cc1ccc(NC(=O)c2cc(C(F)(F)F)c(C(F)(F)F)cc2C(=O)O)nc1C [Example 49, 2-((5,6-dimethylpyridin-2-yl)carbamoyl)-4,5-bis(trifluoromethyl)benzoic acid]
